# Assay results reported in patent publication US20110189308A1, “METHODS TO TREAT NEURODEGENERATIVE CONDITIONS OR DISEASES BY TARGETING COMPONENTS OF A PTEN SIGNALING PATHWAY” (priority 2008, published 2011).
# System: primary cortical cultures from (Atg7^flox/flox) mice
# Test: Process length in primary cortical cultures from Atg7 flox/flox mice transfected with Cre plasmid, with PI3K inhibitors
# Format: cell-based, mouse
# Settings: FIG. 16D; 10 μM Wortmannin or 50 μM LY294002; n>45 neurons per group; mean±S.E.
# From the text: FIGS. 16A-16D. Primary midbrain neuronal cultures from autophagy-deficient Dat^Cre/+Atg7^flox/flox mice display prolonged neurites. FIG. 16A, Elongated processes in TH-positive neurons in primary midbrain cultures from autophagy-deficient (Dat^Cre/+Atg7^flox/flox) mice relative to controls (Dat^Cre/+Atg7^flox/wild). FIG. 16B, The elongated process phenotype is also apparent in primary cortical cultures from (Atg7^flox/flox) mice transfected with Cre-recombinase encoding plasmid (along with GFP plasmid) compared to primary neurons transfected with GFP plasmid alone. […] FIG. 16C, Quantitation of process length as in (A). Dat^Cre/+Atg7^flox/wild versus Dat^Cre/+Atg7^flox/flox; 0.933±0.098 mm versus 1.704±0.139 mm, p<0.01. n>49 neurons per group in at least three separate independent experiments. FIG. 16D, quantification of data as in (C). Dat^Cre/+Atg7^flox/wild versus Dat^Cre/+Atg7^flox/flox; 0.428±0.036 mm versus 0.721±0.073 mm (DMSO), 0.198±0.018 mm versus 0.217±0.021 mm (Wortmannin, WM), and 0.158±0.015 mm versus 0.176±0.018 mm (LY294002, LY). n>45 neurons per group in at least three separate independent experiments. Bar, 50 μm.**, P<0.01.
# Cell Culture. For midbrain culture, midbrain tissues were dissected from newborn mice (postnatal 0 day). The tissues were minced and digested in isolation medium containing 0.25% trypsin and ascorbic acid at 37° C. for 30 min. After the incubation, the digestion was stopped by 3% fetal bovine serum and 0.25% Dnase I. The tissues were triturated 20 times by glass-pipette and filtrated by cell strainer. They were centrifuged at 1,200 rpm for 5 min, and the supernatants were removed. The cells were suspended in plating medium containing 10% fetal bovine serum and plated on poly-D-lysine and laminin-coated 24-well plates. On the next day, the plating medium was replaced by culture medium containing 1% fetal bovine serum and antimitotic agent. The cells were kept on 37° C. for three more days. For cortical culture, cortical tissues were dissected from newborn mice (postnatal 0 day). The tissues were minced and digested in isolation medium containing 0.25% trypsin at 37° C. for 30 min. After the incubation, the digestion was stopped by 3% fetal bovine serum and 0.25% Dnase I. The tissues were triturated 20 times by glass-pipet and filtrated by cell strainer. They were centrifuged at 1,200 rpm for 5 min, and the supernatants were removed. The cells were suspended in plating medium containing 10% fetal bovine serum and plated on poly-D-lysine and laminin-coated 24-well plates. On second day, the cells were transfected with GFP or Cre expression plasmids. To transfect the plasmids, the cells were washed in 500 μl DMEM and added 30 μl of DNA/Ca/Phosphate complex (2 μg DNA/3.75 μl 1M CaCl2/15 μl 2× HBSS). […]
Structure (SMILES),"process length, Atg7-deficient neurons (Dat^Cre/+Atg7^flox/flox) [mm]","process length, control neurons (Dat^Cre/+Atg7^flox/wild) [mm]"
O=c1cc(N2CCOCC2)oc2c(-c3ccccc3)cccc12 [LY294002],0.176±0.018,0.158±0.015
COC[C@H]1OC(=O)c2coc3c2[C@@]1(C)C1=C(C3=O)[C@@H]2CCC(=O)[C@@]2(C)C[C@H]1OC(C)=O [Wortmannin],0.217±0.021,0.198±0.018
